Test [1] deals with T1, AChE from Electrophorus electricus (eelAChE) type VI-S (Electrophorus electricus, UniProt O42275).
T1 construct: purchased Sigma-Aldrich type VI-S
As to the kind of experiment: biochemical. The conditions noted are these: for mechanism of inhibition: double-reciprocal (Lineweaver-Burk) plots; for IC50 / Ki: eelAChE-ICER; for IC50: 20 μL ACh stock 500 μM in 100 μL reaction mixture, non-linear regression; for Ki: ACh 10 to 150 μM, inhibitor 0, 10, 50 and 75 μM, Lineweaver-Burk replot, read-out: Ki (steady-state inhibition constant); for inhibition: pH 8, 10 μL of 1.0 mM compound stock in 100 μL reaction mixture, read-out: % Inhibition eelAChE-ICER. How it is done:
AChE from Electrophorus electricus (type VI-S) was immobilized in a fused-silica capillary tube (eelAChE-ICER) according to a previously reported protocol (Vanzolini et al., [2013]). An enzyme solution containing 2 units/mL eelAChE was used in the immobilization procedure. The LC-MS system was set up for the eelAChE-ICER as previously described (Vanzolini et al., [2013]). The mobile phase (15 mM ammonium acetate solution, pH 8.0) was infused by pump 1 at a flow rate of 50 μL/min and pump 2 delivered acetonitrile after the eelAChE-ICER at a flow rate of 50 μL/min. IT-MS parameters were: 3,713 V capillary voltage, 500 V end plate voltage, […] drying gas, 300°C drying temperature and 30 psi nebulizer. In addition, ACh ([M+H]^+ m/z 146) and Ch ([M+H]^+ m/z 104), were analyzed by MS operating in the manual MS^n mode under positive ionization (scan 50–550 m/z). Enzymatic activity was quantified using a Ch standard external calibration curve prepared in 15 mM ammonium acetate solution, pH 8.0 with the final concentration ranging from 5 to 350 μM. An aliquot (10 μL) of each solution was injected in triplicate into the system using an empty fused silica capillary. The calibration curve was obtained by plotting the Ch [M+H]^+ m/z 104 area against the injected Ch concentration.
Stock solutions of each compound were prepared in methanol at 1.0 mM. The enzymatic activity of eelAChE-ICER was measured in the presence and absence of each compound. Reactions mixtures were prepared by mixing 20 μL of ACh stock solution (350 μM, in 15mM ammonium acetate solution, pH 5.0) with 10 μL of methanol or stock solution of compounds (1.0 mM) and 70 μL ammonium acetate solution (15mM, pH 8.0). Each reaction mixture (10 μL) was injected into the LC-MS system. The percentage of inhibition (%I) was calculated by comparing the product peak area in the presence of tested compound with positive control (absence of inhibitors).
Final volumes were completed with 70 μL ammonium acetate solution (15mM, pH 8.0) and each reaction mixture (10 μL) was injected into the LC-MS system. The inhibition curve was obtained for each sample by plotting the percentage of inhibition vs. each corresponding inhibitor concentration, and the IC50 values were achieved by non-linear regression analysis using GraphPad Prism 5 software.
For this purpose, the eelAChE-ICER activity was evaluated under different concentrations of ACh (10 to 150 μM) and at the fixed concentration of derivative 1a and 1b (0, 10, 50, and 75 μM). Lineweaver-Burk plots were used to determine the action mechanism for the inhibitors.
A linear replot was obtained, and the division quotient between the linear and angular coefficients provided the Ki values.

A further test has as its system AChE. Set-up: method as in Loizzo et al., 2008. The conditions noted are these: AChE inhibition; ref Loizzo et al., 2008; cited from earlier work.
Where [2] appears, read: 20 μL ACh stock 350 μM, ammonium acetate 15 mM pH 8.0.

T1 sequence (O42275 24-633): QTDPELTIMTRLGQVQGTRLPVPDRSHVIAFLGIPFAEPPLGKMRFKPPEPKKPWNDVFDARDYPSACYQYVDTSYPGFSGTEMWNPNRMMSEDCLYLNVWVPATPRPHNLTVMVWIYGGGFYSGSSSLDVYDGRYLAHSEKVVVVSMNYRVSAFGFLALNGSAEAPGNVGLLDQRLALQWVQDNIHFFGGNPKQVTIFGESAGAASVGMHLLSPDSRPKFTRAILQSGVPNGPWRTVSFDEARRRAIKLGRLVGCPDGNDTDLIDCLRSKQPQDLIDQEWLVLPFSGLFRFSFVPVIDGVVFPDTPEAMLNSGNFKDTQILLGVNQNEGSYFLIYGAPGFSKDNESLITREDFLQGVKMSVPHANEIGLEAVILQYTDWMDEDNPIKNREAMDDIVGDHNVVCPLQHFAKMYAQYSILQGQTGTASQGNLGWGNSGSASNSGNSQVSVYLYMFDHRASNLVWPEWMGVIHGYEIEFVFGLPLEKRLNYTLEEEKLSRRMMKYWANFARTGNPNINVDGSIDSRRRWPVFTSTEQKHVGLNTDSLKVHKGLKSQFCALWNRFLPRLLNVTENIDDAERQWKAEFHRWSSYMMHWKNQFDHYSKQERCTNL

Regarding `COc1cc2c(cc1O)[C@@H]1Cc3ccc(O)c(OC)c3C[N@+]1(Cc1ccccc1)CC2` [1a, (7R,13aS)-7-benzylstepholidine], in test [1], the mechanism of inhibition entry is “non-competitive”, the IC50 stood at 40.6 ± 1 µM and the Ki came to 11.6 µM. In addition, in test [1] (setting [2]), the inhibition worked out at 90.1 ± 2.04%.
The corresponding values for `COc1cc2c(cc1O)[C@@H]1Cc3ccc(O)c(OC)c3C[N@@+]1(Cc1ccccc1)CC2` [1b, (7S,13aS)-7-benzylstepholidine] are “non-competitive”, 51.9 ± 1 µM, 4.7 µM and 90.5 ± 2.48%.
As to `COc1cc2c(cc1OCc1ccccc1)[C@@H]1Cc3ccc(O)c(OC)c3CN1CC2` [1c, (S)-2-O-benzylstepholidine], in test [1] (setting [2]), the inhibition amounted to 35.2 ± 5.02%.
For the compound `COc1cc2c(cc1O)[C@@H]1Cc3ccc(OCc4ccccc4)c(OC)c3CN1CC2` [1d, (S)-10-O-benzylstepholidine], in test [1] (setting [2]), the inhibition was determined as 46.3 ± 5.45%.
Still for that read-out and setting: in the case of `COc1cc2c(cc1OCc1ccccc1)[C@@H]1Cc3ccc(OCc4ccccc4)c(OC)c3CN1CC2` [1e, (S)-O, O-dibenzylstepholidine] it was 43.6 ± 2.54%.
`COc1cc2c(cc1O)C1Cc3ccc(O)c(OC)c3C[N+]1(C)CC2` (stereo not shown) [N-methyl stepholidine]: the IC50 with AChE is 31.3 µM.
As to `COc1cc2c(cc1O)[C@@H]1Cc3ccc(O)c(OC)c3CN1CC2` [Stepholidine, stepholidine, reference compound], the “% Inhibition eelAChE-ICER” value in test [1] (10 μL of 1.0 mM compound stock in 100 μL reaction mixture, 20 μL ACh stock 350 μM, ammonium acetate 15 mM pH 8.0) is recorded as 40.2 ± 1.65%. In test [1] (setting [2]), the inhibition is under 50%. Also, in the test with AChE, the IC50 is over 100 µM.
On to `COc1cc2c(cc1O)-c1cc3ccc(O)c(OC)c3c[n+]1CC2` [stepharanine], for which the IC50 in the test on AChE is 14.1 µM.

The values above are taken from article PMC6760013, “Synthesis and Inhibition Evaluation of New Benzyltetrahydroprotoberberine Alkaloids Designed as Acetylcholinesterase Inhibitors” (Frontiers in Chemistry, 2019).
